Results from US6258839A, “Isolation of naturally occuring isoflavanone and some clinical uses thereof” (priority 1997, dated 2001).
pEC50, pIC50: −log10 of the molar value.

Experiments:
HIV-11118 = assay: in vitro anti-HIV activity, HIV-11118; format: cell-based, HIV-1
integrase = integrase (Human immunodeficiency virus type 1 group M subtype B, UniProt P04585); assay: integrase enzymatic activity; format: biochemical, HIV
[1] = U1/TNF differential latent infection, XTT and p24; settings: human, u1 cells
U1 latent infection = assay: U1/TNF differential latent infection, XTT and p24
TiBO/A98G, V1081 = assay: activity against HIV mutants: TiBO/A98G, V1081; format: cell-based, HIV-1; settings: Human immunodeficiency virus 1
[2] = test system: HIV in fresh human peripheral blood mononuclear cells (PBMC's); assay: in vitro anti-HIV activity in fresh human PBMC's; format: cell-based, HIV-1; settings: Human immunodeficiency virus 1, PBMC
HEPT/P236L = assay: activity against HIV mutants: HEPT/P236L; format: cell-based, HIV-1; settings: Human immunodeficiency virus 1
CEM-SS = assay: growth inhibition of uninfected host cells in anti-HIV screen; settings: Homo sapiens
BSA = BSA (Bos taurus, UniProt P02769); assay: interaction with BSA by fluorescence spectroscopy; format: binding, bovine; settings: PMZ-1 in the μM range
hollow fibre studies = format: in vivo; settings: intraperitoneally; preliminary
DPS/Y181C = assay: activity against HIV mutants: DPS/Y181C; format: cell-based, HIV-1
CALO/V901, P225S = assay: microbe, parasite or virus in culture; format: cell-based, HIV-1; settings: Human immunodeficiency virus 1
[3] = test system: HIV-1 attachment to cells (CEM-SS, PBMC's); assay: virus attachment assay, p24 based; format: cell-based
HIV-1 AZT^res = assay: in vitro anti-HIV activity, AZT resistant HIV-1; format: cell-based; settings: Human immunodeficiency virus 1
[4] = test system: mutant viruses containing reverse transcriptase domain at codons 181, 139 and 100; assay: activity against three other mutant viruses; format: cell-based, HIV
HIV-2 = assay: activity against HIV-2; format: cell-based
SIV MAC = assay: in vitro antiviral activity, SIV; format: cell-based
HIV [5] = assay: combination studies with AZT; format: cell-based
solubility studies = format: physicochemical
Description: It is very soluble in propylene glycol (PG), polyethylene glycol (PEG) 400 and soybean oil. These solvents may be useful in formulating cosolvents suitable for pharmaceutical applications. The ethanolic solutions has UV absorptions in the 290-300 nm range, useful for analytical work. Aqueous solutions for analytical work were prepared in HPCD and diluted with water to the required concentrations. The stock solutions were stable when incubated for 48 hours at 37° C. and when stored at room temperature.

breast cancer = assay: NCI 60 cell line panel, breast cancer; format: cell-based
HIV [6] = assay: HIV activity of co-isolated compounds; format: cell-based
[7] = test system: HIV-1 infected cells (p24 production); assay: extended time course assay, p24 and XTT; settings: addition to culture after infection

Sequence of BSA (P02769 25-607): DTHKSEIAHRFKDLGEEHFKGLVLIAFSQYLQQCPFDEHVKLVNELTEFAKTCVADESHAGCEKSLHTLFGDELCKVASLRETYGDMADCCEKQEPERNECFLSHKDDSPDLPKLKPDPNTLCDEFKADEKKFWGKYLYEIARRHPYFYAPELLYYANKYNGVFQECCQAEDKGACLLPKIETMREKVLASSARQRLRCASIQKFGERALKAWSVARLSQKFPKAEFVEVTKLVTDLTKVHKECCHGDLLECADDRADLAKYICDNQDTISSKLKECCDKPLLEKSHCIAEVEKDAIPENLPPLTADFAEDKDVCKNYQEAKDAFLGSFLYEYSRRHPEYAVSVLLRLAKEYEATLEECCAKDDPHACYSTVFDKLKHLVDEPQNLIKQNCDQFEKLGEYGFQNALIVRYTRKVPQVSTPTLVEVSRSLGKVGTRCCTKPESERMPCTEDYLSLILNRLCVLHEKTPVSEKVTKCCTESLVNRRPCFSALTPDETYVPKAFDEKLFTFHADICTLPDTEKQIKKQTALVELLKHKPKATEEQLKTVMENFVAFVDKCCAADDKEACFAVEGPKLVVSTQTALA

Compound: COc1c(O)cc(C2COc3cc(O)cc(O)c3C2=O)cc1CC=C(C)C (racemic) [PMZ-1]
- pEC50 (HIV-11118; Human immunodeficiency virus 1, HIV-1IIIB, NCI AIDS anti-viral screen): 6.70
- pEC50 (HIV-11118; Human immunodeficiency virus 1, HIV-11118): 7.24
- pIC50 (integrase): 4.40
- MNTC [1]: 1000 nM
- U1/TNF differential latent infection XTT: toxic concentration (U1 latent infection; XTT): ≤ 3.16 µM
- U1/TNF differential latent infection p24 production (U1 latent infection; p24): no inhibition of p24 production
- pEC50 (TiBO/A98G, V1081): < 5.30
- pEC50 ([2]; PMBC's): 6.22
- pEC50 ([2]; fresh human PBMC's): > 6.00
- pEC50 (HEPT/P236L): < 5.30
- pIC50 (CEM-SS): 4.42
- pIC50 (CEM-SS; cell growth, HIV-1 AZT^res test): 4.38
- pIC50 (CEM-SS; cell growth, HIV-1 AZT^sen test): 4.46
- pIC50 (CEM-SS; cell growth, HIV-1 DPS test): 4.38
- pIC50 (CEM-SS; cell growth, HIV-1 N119 test): 4.22
- pIC50 (CEM-SS; cell growth, HIV-1RF test): 4.70
- pIC50 (CEM-SS; cell growth, HIV-1 ROD test): 4.55
- pIC50 (CEM-SS; cell growth, HIV-11118 test): 4.34
- pIC50 (CEM-SS; cell growth, SIV MAC test): 4.46
- quenching of fluorescence of BSA (BSA): concentration dependent quenching
- activity in hollow fibre studies (hollow fibre studies): active
- pEC50 (DPS/Y181C; Human immunodeficiency virus 1, DPS/Y181C): 5.86
- pEC50 (DPS/Y181C; Human immunodeficiency virus 1, mutant Y181): ~6.00
- pEC50 (CALO/V901, P225S): 7.00
- effect on attachment of virons to cells [3]: no effect
- HIV-1 Attachment to CEM-SS cells ([3]; at 100 μM, CEM-SS cells): No inhibition
- pEC50 (HIV-1 AZT^res): 6.80
- activity against three other mutant viruses [4]: some activity
- activity against HIV-2 (HIV-2): weak activity
- activity against SIV (SIV MAC): weak activity
- anti-viral combination effect with AZT (HIV [5]): anti-viral synergistic effects
- solubility in 40% HPCD (solubility studies; 40% hydroxypropyl beta-cyclodextrin): soluble
- solubility in ethanol (solubility studies; ethanol): > 1 mg/mL
- solubility in PG, PEG 400 and soybean oil (solubility studies; propylene glycol, polyethylene glycol 400, soybean oil): very soluble
- solubility in water (solubility studies; water): poorly soluble
- activity against breast cancer (breast cancer): good activity

Compound: CC(C)=CCc1c(O)cc(O)c2c1OC(c1ccc(O)c(O)c1)CC2=O (stereo not drawn) [4382-39-1]
- HIV activity (HIV [6]): devoid of HIV activity

Compound: CC(C)=CCc1cc(C2COc3cc(O)cc(O)c3C2=O)cc(O)c1O (stereo not drawn) [4382-39-2]
- HIV activity (HIV [6]): devoid of HIV activity

Compound: Cc1ccnc2c1NC(=O)c1cccnc1N2C1CC1 [nevirapine, reference compound]
- time after infection within which addition is effective [7]: ≤ 8 h
